Data taken from patent US7078178B2, “Methods of altering calcium transport” (priority 1999, dated 2006).

Tests used:
CaT1 mRNA = test: Northern analysis of CaT1 mRNA in rat duodenum in vivo
Method: Northern analysis procedures were as follows. Poly(A)^+ RNA (3 μg) from rat tissues were electrophoresed in formaldehyde-agarose gels and transferred to nitrocellulose membranes. The filters were probed with ^32P-labeled full-length CaT1 cDNA, hybridized at 42° C. with a solution containing 50% formamide, 5×SSPE, 2× Denhardt's solution, 0.1% SDS and 100 μg/ml denatured salmon sperm DNA (and washed with 5×SSC/0.1% SDS at 50° C. for 2×30 minutes and 0.1×SSC at 65° C. for 3×30 minutes. Autoradiography was performed at −80° C. for 1 to 2 days.

CaT1 [1] = target: T1, CaT1 (Rattus norvegicus, UniProt Q9R186); test: ^45Ca^2+ uptake assay in Xenopus laevis oocytes expressing CaT1; type: cell-based; settings: for inhibition of ^45Ca^2+ uptake: cation 10 mM; for inhibition of ^45Ca^2+ uptake by di- and trivalent cations: 1 mM Ca^2+, cation 100 μM
T1 construct: ID; No. 4; expressed in transfected cells; host or cells: Xenopus laevis oocytes injected with synthetic cRNA of the cloned rat cDNA
T1 sequence (Q9R186 41-767): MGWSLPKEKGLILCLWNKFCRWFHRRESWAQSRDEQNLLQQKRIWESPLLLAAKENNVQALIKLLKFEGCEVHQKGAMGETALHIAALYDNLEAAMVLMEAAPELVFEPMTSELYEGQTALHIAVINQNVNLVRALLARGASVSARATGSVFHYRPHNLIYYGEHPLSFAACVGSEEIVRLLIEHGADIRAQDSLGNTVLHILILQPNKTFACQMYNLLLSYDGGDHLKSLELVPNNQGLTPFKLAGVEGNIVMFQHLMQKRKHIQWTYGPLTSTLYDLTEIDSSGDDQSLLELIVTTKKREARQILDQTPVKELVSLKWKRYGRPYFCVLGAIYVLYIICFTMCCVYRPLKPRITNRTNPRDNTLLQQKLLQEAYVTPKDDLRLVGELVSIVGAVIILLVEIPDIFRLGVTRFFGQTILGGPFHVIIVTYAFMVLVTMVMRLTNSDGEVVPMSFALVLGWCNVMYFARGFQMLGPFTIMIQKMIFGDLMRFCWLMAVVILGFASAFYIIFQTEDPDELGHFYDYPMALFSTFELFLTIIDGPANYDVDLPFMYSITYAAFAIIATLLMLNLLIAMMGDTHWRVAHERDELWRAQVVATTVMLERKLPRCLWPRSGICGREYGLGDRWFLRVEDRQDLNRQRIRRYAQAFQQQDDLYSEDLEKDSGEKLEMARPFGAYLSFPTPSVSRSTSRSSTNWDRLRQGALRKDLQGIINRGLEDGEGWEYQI
Method: ^45Ca^2+ uptake assay—Defolliculated Xenopus laevis oocytes were injected with either 50 nl of water or RNA. ^45Ca^2+ uptake was assayed 3 days after injection of poly(A)^+ or 1–3 days a injection of synthetic complementary RNA (cRNA). For expression cloning, oocytes were incubated in modified Barth's solution supplemented with 1 mM SrCl2 (to avoid excessive loading of oocytes with Ca^2+) as well as penicillin, streptomycin and gentamycin at 1 mg/ml. Standard uptake solution contained the following components (in mM): NaCl 100, KCl 2, MgCl2 1, CaCl2 1 (including ^45Ca^2+), Hepes 10, pH 7.5. Uptake was performed at room temperature for 30 minutes (for the expression cloning procedure, 2 hour uptakes were employed), and oocytes were washed 6 times with ice-cold uptake medium plus 20 mM MgCl2. […] Control experiments were performed with the appropriate ethanol and DMSO concentrations. Unless stated specifically, data are presented as means obtained from at least three experiments with 7 to 10 oocytes per group with standard error of the mean (S.E.M.) as the index of dispersion. Statistical significance was defined as having a P value of less than 0.05 as determined by Student's t-test.

CaT1 [2] = target: T1, CaT1; test: Two-microelectrode voltage clamp of oocytes expressing CaT1; type: cell-based; settings: for current as percentage of the current evoked by 5 mM Ca^2+: 5 mM cation, EGTA-injected oocytes clamped at −50 mV, n=17; for currents evoked by metal ions / effect on Ca^2+-evoked currents: each at 100 μM
Method: (§1) Two-microelectrode voltage clamp experiments were performed using standard techniques (see Chen et al., J. Biol. Chem. 274:2773–2779 (1999)) using a commercial amplifier and pCLAMP software (Version 7, Axon Instruments, Inc., Foster City, Calif.). An oocyte was introduced into the chamber containing Ca^2+-free solution and was incubated for about 3 minutes before being clamped at −50 mV and subjected to measurements. In experiments involving voltage ramps or jumps, whole-cell current and voltage were recorded by digitizing at 300 μs/sample and by Bessel filtering at 10 kHz. When recording currents at a holding potential, digitization at 0.2 s/sample and filtering at 20 Hz were employed. Voltage ramping consisted of pre-holding at −150 mV for 200 ms to eliminate capacitive currents and a subsequent linear increase from −150 to +50 mV, with a total duration of […]. Voltage jumping consisted of 150 ms voltage pulses of between −140 and +60 mV, in increments of +20 mV. Steady-state currents were obtained as the average values in the interval from 135 to 145 ms after the initiation of the voltage pulses. For experiments involving voltage-clamped ^45Ca^2+ uptake, Ca^2+-evoked currents and uptake of ^45Ca^2+ were simultaneously measured at −50 mV, using a method similar to that described in Chen et al. (cited above).

[3] = system: endogenous Ca^2+-activated chloride-channel currents; test: Block of the peak current in voltage-clamped oocytes by chloride channel blockers; type: cell-based, Xenopus laevis; settings: 5 mM Ca^2+; holding potential −50 mV
Method: as §1, with “above). […]” for “above).”

inhibition of ^45Ca^2+ uptake by di- and trivalent cations (CaT1 [1])	currents evoked by metal ions (CaT1 [2])	effect on Ca^2+-evoked currents (CaT1 [2])	Structure (SMILES)	also measured
marked to moderate inhibition	did not evoke measurable currents	inhibited	[Cu+2] [Cu^2+]	
marked to moderate inhibition	did not evoke measurable currents	inhibited	[La+3] [La^3+]	
no significant effects	did not evoke measurable currents	no observable effects	[Mn+2] [Mn^2+]	
	did not evoke measurable currents	no observable effects	[Zn+2] [Zn^2+]	

Continued, compound first:

Structure (SMILES)	inhibition of ^45Ca^2+ uptake by di- and trivalent cations (CaT1 [1])	currents evoked by metal ions (CaT1 [2])	effect on Ca^2+-evoked currents (CaT1 [2])	also measured
C=C1/C(=C\C=C2/CCC[C@]3(C)[C@@H]([C@H](C)CCCC(C)(C)O)CC[C@@H]23)C[C@@H](O)C[C@@H]1O [1,25-dihydroxyvitamin D3]				regulation of CaT1 mRNA in rat duodenum (CaT1 mRNA): not regulated
[Ba+2] [Ba^2+]				inhibition of ^45Ca^2+ uptake (CaT1 [1]): only slight inhibitory effects; current as percentage of the current evoked by 5 mM Ca^2+ (CaT1 [2]): 12±2%
[Ca+2] [Ca^2+]				Km (CaT1 [1]; CaT1 expressed in oocytes, read-out: apparent Michaelis constant (Km) of Ca^2+ uptake): 440 ± 70 µM; plateau value of inward current (CaT1 [2]; 5 mM Ca^2+, holding potential −50 mV): 20–50 nA
COc1cc(CNC(=O)CCCC/C=C/C(C)C)ccc1O [Capsaicin, capsaicin]				stimulation of CaT1-mediated ^45Ca^2+ uptake in oocytes (CaT1 [1]; capsaicin up to 50 μM): did not stimulate
[Cd+2] [Cd^2+]	marked to moderate inhibition	did not evoke measurable currents	inhibited	
[Co+2] [Co^2+]	marked to moderate inhibition	did not evoke measurable currents	inhibited	
O=C(O)CN(CCOCCOCCN(CC(=O)O)CC(=O)O)CC(=O)O [EGTA, ethylene glycol-bis(β-aminoethylether)-N,N,N′,N′-tetraacetic acid]				increase in Ca^2+ uptake (CaT1 [1]; EGTA injected into oocytes to a final concentration of 1–2 mM): three- to five-fold increase; effect on overshoot of Ca^2+-evoked inward current (CaT1 [2]; EGTA injected to a final concentration of 1–2 mM, −50 mV): abolished the overshoot
[Fe+3] [Fe^3+]	no significant effects	did not evoke measurable currents	no observable effects	
[Gd+3] [Gd^3+]	marked to moderate inhibition	did not evoke measurable currents	inhibited	
[Mg+2] [Mg^2+]				inhibition of ^45Ca^2+ uptake (CaT1 [1]): no significant inhibition; blocker of CaT1 (CaT1 [2]): nor an effective blocker; substrate of CaT1 (CaT1 [2]; up to 20 mM): neither a substrate
[Na+] [Na^+]				Ca^2+ entry with extracellular Na^+ (CaT1 [1]; non-clamped oocytes, Ca^2+ applied for 30 minutes): enhanced; Ca^2+-evoked currents in the presence versus absence of Na^+ (CaT1 [2]; 100 mM Na^+): slightly lower
[Ni+2] [Ni^2+]		did not evoke measurable currents	inhibited	
[Pb+2] [Pb^2+]	marked to moderate inhibition	did not evoke measurable currents	inhibited	
[Sr+2] [Sr^2+]				inhibition of ^45Ca^2+ uptake (CaT1 [1]): only slight inhibitory effects; current as percentage of the current evoked by 5 mM Ca^2+ (CaT1 [2]): 20±4%
O=C(O)c1ccccc1Nc1cccc(C(F)(F)F)c1 [flufenamate]				block of the peak current [3]: could be blocked
C/C=C(/C)C(=O)O[C@H]1C(C)=C2[C@H]([C@@H]1OC(=O)CCCCCCC)[C@@](C)(OC(C)=O)C[C@H](OC(=O)CCC)[C@@]1(O)[C@H]2OC(=O)[C@@]1(C)O [thapsigargin]				CaT1-mediated Ca^2+ activity relative to its baseline activity (CaT1 [1]; depletion of calcium stores by thapsigargin treatment): about 20%
